Series [1] deals with T1, type α4β2 central nicotinic receptors (Rattus norvegicus, UniProt P09483+P12390).
T1 construct: from tissue; host or cells: rat brain membranes
The series can be described thus: Displacement of binding of [3H]-cytisine on type α4β2 nicotinic receptors of rat brain. To be noted: rat brain membranes. The method, then: This study, carried out according to the technique described in Molec. Pharmacol., 1990, 39; 9-12, is aimed at determining the affinity of compounds of the present invention for type α4β2 central nicotinic receptors.
Membranes (250 μg/ml) of rat brain are incubated (2 hours, 20° C.) in the presence of a series of concentrations (0.01-10 μM) of each compound of the present invention (diluted starting from a 10 mM stock solution in DMSO) and [^3H]-cytisine (S.A.: 1184 GBq/mmol: 2 nM) in phosphate buffer (NaH2PO4 20 mM, pH 7.4); final volume: 250 μl. The non-specific binding is determined by incubating membranes in the presence of 10 μM of (−)nicotine. The affinity of the compounds of the present invention for type α4β2 central nicotinic receptors is characterised by determination of the Ki.

In series [2] the test system is release of acetylcholine in the prefrontal cortex. The series can be described thus: In vivo measurement of the release of acetylcholine by intra-cortical microdialysis in the conscious Wistar rat. Details: dose or concentration left out as unconfirmed. To be noted: one hour after administration. The method, then:
The systemic administration of nicotine and nicotinic agonists causes an increase, in vivo, of acetylcholine in various regions of the brain (Neurochem. Res., 1996, 21, 1181-1186; Eur. J. Pharmacol., 1998, 351, 181-188; Br. J. Pharmacol., 1999, 127, 1486-1494). A microdialysis probe is implanted in the median prefrontal cortex of male Wistar rats. Six or seven days after they have been implanted, the probes are perfused with Ringer's solution (NaCl 147 mM, KCl 2.7 mM, CaCl2 1.2 mM, MgCl2 1 mM, neostigmine 20 nM) at a flow rate of 1 μl/min, the animal being free to move. After 2 hours in the animal quarters, the product under test is administered by the intraperitoneal route. A group of control animals receives the solvent used for the product. The dialysates (30 μl) are then collected every 30 minutes for 4 hours in order to measure the cortical extra-synaptic concentrations of acetylcholine by means of HPLC with amperometric detection. The results are expressed in pg of acetylcholine/dialysate, and inter-group comparisons are carried out by means of analysis of variance using 2 factors (treatment×time), with measurements being repeated over time.

Another series relates to Wistar rat. The series can be described thus: Social recognition in the Wistar rat. In kind it is in vivo. To be noted: 10 mg/kg IP, second encounter after 2 hours. The source says: Initially described in 1982 (J. Comp. Physiol., 1982, 96, 1000-1006), the social recognition test has subsequently been proposed by various authors (Psychopharmacology, 1987, 91, 363-368; Psychopharmacology, 1989, 97, 262-268) for studying the mnemocognitive effects of new compounds. The test is based on the natural expression of the olfactory memory of the rat and its natural tendency to forget and allows evaluation of memorisation, by recognition of a young congeneric animal, by an adult rat. A young rat (21 days), taken at random, is placed for 5 minutes in the cage housing an adult rat. With the aid of a video device, the experimenter observes the social recognition behaviour of the adult rat and measures its overall duration. The young rat is then removed from the adult rat's cage and is placed in its own cage until the second introduction. The adult rat is given the compound under test by the intraperitoneal route and, after 2 hours, is again brought into the presence (5 minutes) of the young rat. The social recognition behaviour is then observed again and its duration measured. The assessment criterion is the difference (T2−T1), expressed in seconds, between the “recognition” times of the 2 encounters.

For the next series, the system named is NMRI mouse. Kind of series: Abdominal contractions induced by phenyl-p-benzoquinone (PBQ) in the NMRI mouse. In kind it is in vivo. Conditions: 10 mg/kg IP. The method, then:
Intraperitoneal administration of an alcoholic solution of PBQ causes abdominal cramps in the mouse (Proc. Soc. Exp. Biol., 1957, 95, 729-731). The cramps are characterised by repeated contractions of the abdominal musculature, accompanied by extension of the hind limbs. Most analgesics antagonise these abdominal cramps (Brit. J. Pharmacol. Chem., 1968, 32, 295-310). At t=0 min., the animals are weighed and the compound being studied is administered by the IP route. A group of control animals is given the solvent used for the compound. At t=30 min., an alcoholic solution of PBQ (0.2%) is administered by the IP route in a volume of 0.25 ml/mouse. Immediately after administration of the PBQ, the animals are placed in cylinders of plexiglass (L=19.5 cm; I.D.=5 cm). From t=35 min. to t=45 min., the animals' reaction is observed and the experimenter notes the total number of abdominal cramps per animal. The results are expressed as the percentage inhibition of the number of abdominal cramps measured in the control animals, at the active dose of the compound studied.

Where only a bound is given, the exact number is not on record here.

T1 sequence (P09483 31-630): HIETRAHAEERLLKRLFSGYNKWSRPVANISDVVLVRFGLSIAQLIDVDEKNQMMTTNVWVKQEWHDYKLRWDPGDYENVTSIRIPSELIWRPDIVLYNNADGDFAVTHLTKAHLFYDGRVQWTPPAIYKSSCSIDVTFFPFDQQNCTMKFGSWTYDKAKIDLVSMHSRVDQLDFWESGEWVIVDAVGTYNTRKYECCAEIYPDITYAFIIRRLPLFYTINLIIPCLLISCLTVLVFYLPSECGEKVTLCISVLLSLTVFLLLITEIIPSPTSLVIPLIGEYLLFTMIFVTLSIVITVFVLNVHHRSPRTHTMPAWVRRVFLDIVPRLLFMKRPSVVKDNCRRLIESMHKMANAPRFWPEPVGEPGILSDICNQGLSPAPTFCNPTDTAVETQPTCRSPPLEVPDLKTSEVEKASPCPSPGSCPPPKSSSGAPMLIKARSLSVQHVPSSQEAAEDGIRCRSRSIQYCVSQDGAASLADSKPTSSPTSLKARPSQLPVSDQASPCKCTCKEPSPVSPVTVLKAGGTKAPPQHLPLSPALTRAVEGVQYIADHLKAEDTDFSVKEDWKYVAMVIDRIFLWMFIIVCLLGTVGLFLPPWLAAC
T1 sequence (P12390 25-500): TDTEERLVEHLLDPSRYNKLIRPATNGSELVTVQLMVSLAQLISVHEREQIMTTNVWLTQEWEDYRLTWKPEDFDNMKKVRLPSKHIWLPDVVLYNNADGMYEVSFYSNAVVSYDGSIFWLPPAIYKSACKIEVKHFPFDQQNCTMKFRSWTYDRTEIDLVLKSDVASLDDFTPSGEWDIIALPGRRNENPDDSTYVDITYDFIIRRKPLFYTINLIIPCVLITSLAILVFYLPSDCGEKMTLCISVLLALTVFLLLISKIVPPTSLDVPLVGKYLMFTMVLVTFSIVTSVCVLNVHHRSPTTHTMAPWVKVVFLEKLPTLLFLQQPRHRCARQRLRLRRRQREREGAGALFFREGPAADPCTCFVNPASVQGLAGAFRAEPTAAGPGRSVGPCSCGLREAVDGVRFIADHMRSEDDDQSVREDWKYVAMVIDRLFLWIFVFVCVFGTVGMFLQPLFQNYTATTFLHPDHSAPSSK

`C[C@H]1C[C@@]1(N)COc1ccc(Cl)nc1.Cl` (single isomer, unassigned) came in with a melting point of 183 to 186 °C.

Molecule `C[C@H]1C[C@]1(COc1ccc(Cl)nc1)N(C)C.Cl` (single isomer, unassigned) gave a melting point of 136 to 138 °C.

`C[C@H]1C[C@@]1(N)COc1cccnc1.Cl.Cl` (single isomer, unassigned): the melting point is less than 75 °C.

The molecule `CN[C@@]1(COc2ccc(Cl)nc2)C[C@@H]1C.Cl` (single isomer, unassigned) [11] yielded a melting point of 185 to 190 °C.

Regarding `CN[C@@]1(COc2ccc(Cl)nc2)C[C@@H]1C.Cl` (single isomer, unassigned) [12], the melting point fell in the range of 188 to 192 °C.

`CN[C@@]1(COc2cccnc2)C[C@H]1C.Cl.Cl` (single isomer, unassigned) [20] gave a melting point of 69 to 72 °C.

The molecule `CN[C@@]1(COc2cccnc2)C[C@H]1C.Cl.Cl` (single isomer, unassigned) [21] gave a melting point of 71 to 74 °C.

`CNC1(COc2cccnc2)CC1(C)C.O=C(O)/C=C/C(=O)O.O=C(O)/C=C/C(=O)O` (single isomer, unassigned) [26] came in with a melting point of 124 to 127 °C.

Molecule `CN[C@@]1(COc2cccnc2)C[C@@H]1C.Cl.Cl` (single isomer, unassigned) [Example 2, (1S,2S)- or (1R,2R)-(−)-N,2-dimethyl-1-[(3-pyridinyloxy)methyl]cyclopropanamine Dihydrochloride] showed a melting point of 174 to 176 °C. In addition, the Ki in series [1] stood at 0.069 µM. Also, in series [2], the “increase in the release of acetylcholine in the prefrontal cortex” value is on record as “+86%”. For the same molecule, the “difference (T2−T1) between recognition times” value in the series with Wistar rat was determined as 38 s.

Consider `C[C@H]1C[C@@]1(N)COc1ccc(Cl)nc1.Cl` (single isomer, unassigned) [Example 15, (1S,2S)- or (1R,2R)-(+)-1-{[(6-chloro-3-pyridinyl)oxy]methyl}-2-methylcyclopropanamine Hydrochloride], for which the “reduction of the number of abdominal cramps caused by PBQ” value with NMRI mouse is −69%.

As for `CNC1(COc2cccnc2)CC1(C)C.O=C(O)/C=C/C(=O)O.O=C(O)/C=C/C(=O)O` (single isomer, unassigned) [Example 27], the melting point was in the range of 115 to 118 °C.

One may read the melting point as the temperature, or range, at which the solid turns liquid. Usually Ki stands for the dissociation constant of the complex between target and ligand, obtained from inhibition or displacement.

For the origin of these results see US7348344B2, “Polysubstituted 1,1-pyridyloxycyclopropanamine compounds” (Les Laboratoires Servier, priority 2005, dated 2008).
